These results are taken from ChEMBL document CHEMBL3112483, “Synthesis and cytotoxic activity of MOM-ether analogs of isosteviol” (Bioorg Med Chem Lett, 2014).

Series [1] has as its system NCI-H1299. As to the kind of experiment: Induction of apoptosis in p53 deficient human H1299 cells at IC50 assessed as histone release by ELISA relative to control. In kind it is functional.
Series [2] is described as follows: Induction of apoptosis in human NL20 cells at IC50 assessed as histone release by ELISA relative to control. The class given is cell-based. Background: An ELISA detects its analyte on a solid surface through an enzyme-linked reagent.
A short description of series [3]: Cytotoxicity against p53 deficient human H1299 cells at 100 uM after 24 hrs by MTT assay. The class given is functional. As to conditions: NCI-H1299, 24 h, read-out: GI. Background: Tetrazolium dyes change colour on reduction, which living cells bring about.
Series [4] can be described thus: Cytotoxicity against p53 deficient human H1299 cells after 24 hrs by MTT assay. In kind it is functional, cell-based. As to conditions: NCI-H1299, 24 h.
Series [5] relates to NCI-H1299. Briefly: Induction of apoptosis in human […] cells expressing wild type p53 at IC50 assessed as histone release by ELISA relative to control. The class given is functional.
Series [6] is described as follows: Cytotoxicity against human NL20 cells at IC50 after 24 hrs by MTT assay. As to conditions: nl20, 24 h. In kind it is cell-based.
The subject of series [7] is A549. Briefly: Cytotoxicity against human A549 cells. In kind it is functional, cell-based.

For `COCO[C@@H]1C[C@]23CC[C@@H]4[C@](C)(COC(=O)NCc5ccc(OC)cc5)CCC[C@@]4(C)[C@@H]2CC[C@@]1(C)C3`, the “fold change (FC)” value was found to be 7 in series [1], 4 in series [2] and 2 in series [5]. The inhibition of growth at 100 µM in series [3] stood at 89%. Inhibition in series [4] was half-maximal at 21 µM (IC50). This compound also yielded an Activity in series [6] of 20%.

As for `C[C@@]12CC[C@@H]3[C@@](CC[C@@H]4[C@](C)(COC(=O)/C=C/C(F)(F)F)CCC[C@]43C)(C[C@H]1O)C2`, in series [7], it took 4.1 µM to reach half-maximal inhibition (IC50).

As to `COCO[C@@H]1C[C@]23CC[C@@H]4[C@](C)(CO)CCC[C@@]4(C)[C@@H]2CC[C@@]1(C)C3`, the inhibition of growth at 100 µM in series [3] turned out to be 15%.

With `COCO[C@@H]1C[C@]23CC[C@@H]4[C@](C)(COC(=O)c5ccccc5)CCC[C@@]4(C)[C@@H]2CC[C@@]1(C)C3`, the inhibition of growth at 100 µM in series [3] amounted to 8%.

For the compound `COCO[C@@H]1C[C@]23CC[C@@H]4[C@](C)(COC(C)=O)CCC[C@@]4(C)[C@@H]2CC[C@@]1(C)C3`, the inhibition of growth at 100 µM in series [3] was 13%.

For the compound `CCCCCCCC(=O)OC[C@]1(C)CCC[C@]2(C)[C@@H]1CC[C@@]13C[C@@H](OCOC)[C@@](C)(CC[C@H]12)C3`, the “fold change (FC)” value in series [1] amounted to 10; in series [2], 4; in series [5] it was 2. In addition, the inhibition of growth at 100 µM in series [3] is 95%. Besides, in series [4], the half-inhibitory concentration (IC50) (as a rule, the concentration needed to halve the response being measured) was found to be 14 µM. The same compound came in with an Activity in series [6] of 20%.

With `COCO[C@@H]1C[C@]23CC[C@@H]4[C@](C)(COC(=O)C(C)C)CCC[C@@]4(C)[C@@H]2CC[C@@]1(C)C3`, in series [3], the inhibition of growth at 100 µM was determined as 20%.

On to `COCO[C@@H]1C[C@]23CC[C@@H]4[C@](C)(COC(=O)COc5ccccc5)CCC[C@@]4(C)[C@@H]2CC[C@@]1(C)C3`, for which, in series [3], the inhibition of growth at 100 µM worked out at 70%.

As to `COCO[C@@H]1C[C@]23CC[C@@H]4[C@](C)(COC(=O)Nc5ccccc5)CCC[C@@]4(C)[C@@H]2CC[C@@]1(C)C3`, in series [3], the inhibition of growth at 100 µM is 65%.

As to `COCO[C@@H]1C[C@]23CC[C@@H]4[C@](C)(COC(=O)Nc5ccc(C(C)=O)cc5)CCC[C@@]4(C)[C@@H]2CC[C@@]1(C)C3`, in series [3], the inhibition of growth at 100 µM is 60%.

Regarding `CCCNC(=O)OC[C@]1(C)CCC[C@]2(C)[C@@H]1CC[C@@]13C[C@@H](OCOC)[C@@](C)(CC[C@H]12)C3`, the inhibition of growth at 100 µM in series [3] was found to be 20%.

Consider `COCO[C@@H]1C[C@]23CC[C@@H]4[C@](C)(COC(=O)NCc5ccccc5)CCC[C@@]4(C)[C@@H]2CC[C@@]1(C)C3`, for which, in series [3], the inhibition of growth at 100 µM stood at 50%.

Turning to `CCCCCCCC(=O)OC[C@]1(C)CCC[C@]2(C)[C@@H]1CC[C@@]13C[C@@H](O)[C@@](C)(CC[C@H]12)C3`, the inhibition of growth at 100 µM in series [3] was found to be 48%.
